# Target: T1, Hms (Streptomyces coelicolor, UniProt Q9Z4X7)
# T1 construct: gene SCO3229; full-length, C-terminal Strep-tag II kept, expressed in E. coli BL21(DE3) from pKYB1; monomer, ~45 kDa
# T1 sequence (Q9Z4X7 1-371): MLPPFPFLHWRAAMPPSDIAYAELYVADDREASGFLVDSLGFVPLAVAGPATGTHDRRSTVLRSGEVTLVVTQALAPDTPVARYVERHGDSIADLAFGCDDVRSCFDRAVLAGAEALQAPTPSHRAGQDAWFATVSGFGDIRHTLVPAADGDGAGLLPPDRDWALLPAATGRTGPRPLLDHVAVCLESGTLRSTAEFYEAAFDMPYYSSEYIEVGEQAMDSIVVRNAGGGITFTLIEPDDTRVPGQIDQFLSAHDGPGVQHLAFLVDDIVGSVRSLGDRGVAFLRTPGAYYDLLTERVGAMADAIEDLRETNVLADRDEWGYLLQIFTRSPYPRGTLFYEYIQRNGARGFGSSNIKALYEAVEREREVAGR
# Test: O2 consumption, micro-optode, steady state
# Type: biochemical
# Conditions: apparent constant at air saturation; 20 mM Tris/HCl pH 7.5, 25 °C; no added Fe(II)
row,SMILES,Km [µM]
1,"O=C(O)C(=O)Cc1ccccc1 [PP, Phenylpyruvic acid]",353 ± 87
2,"O=C(O)C(=O)CCc1ccccc1 [OPB, 2-Oxo-4-phenylbutanoic acid]",35 ± 20
3,"COc1ccc(CC(=O)C(=O)O)cc1 [VII, p-Methoxyphenylpyruvic acid]",160 ± 70

# From article PMC3720870, “Chiral Hydroxylation at the Mononuclear Nonheme Fe(II) Center of 4-(S) Hydroxymandelate Synthase – A Structure-Activity Relationship Analysis” (PLoS ONE, 2013)
